Experimental data as given in ChEMBL document CHEMBL1201862, “PubChem BioAssay data set” (2004).
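Test compounds were applied to cells in 96-well plates for 48 hours at 5 doses. Here, GI50 denotes the concentration required for 50% inhibition of growth.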 Activity calls are given as the source filed them. Cut-off read from the data, not from the text of the source: active = GI50 up to about 1.1 µM and inactive = higher.

Key:
Experiment in all cases: growth of human tumour cells (NCI), 48 h
LOX IMVI = system: LOX IMVI
K562 = system: K562
SN12C = system: SN12C
SW-620 = system: SW-620
Malme-3M = system: Malme-3M
HL-60 = system: HL-60
SNB-19 = system: SNB-19
SK-MEL-2 = system: SK-MEL-2
CAKI-1 = system: CAKI-1
SF-268 = system: SF-268
SF-539 = system: SF-539
ACHN = system: ACHN
SK-MEL-5 = system: SK-MEL-5
RPMI-8226 = system: RPMI-8226
HOP-92 = system: HOP-92

Measured: GI50

CN/N=C(\C)C(CN1CCCCC1)C(C1=C(O)c2ccccc2OC1)c1ccccc1 (stereo not drawn)
inactive: LOX IMVI > 100 µM | K562 > 100 µM | SN12C > 100 µM | SW-620 > 100 µM | Malme-3M 91.8 µM | HL-60 35.2 µM | SNB-19 > 100 µM | SK-MEL-2 > 100 µM | CAKI-1 > 100 µM | SF-268 > 100 µM | SF-539 > 100 µM | ACHN > 100 µM | SK-MEL-5 > 100 µM | RPMI-8226 44.3 µM

CC1CCP(=O)(c2ccccc2)c2ccccc21 (stereo not drawn)
inactive: LOX IMVI 24.3 µM | K562 25.1 µM | SN12C 26.2 µM | SW-620 > 10 µM | Malme-3M > 100 µM | HL-60 19.6 µM | SNB-19 > 100 µM | SK-MEL-2 > 100 µM | SF-539 56.1 µM | ACHN 42.5 µM | SK-MEL-5 49.5 µM | RPMI-8226 64.3 µM

CNC(=O)CN(CC(=O)NC)C(=O)NC
inactive: LOX IMVI > 100 µM | K562 > 100 µM | SW-620 > 100 µM | Malme-3M > 100 µM | HL-60 > 100 µM | SNB-19 > 100 µM | SK-MEL-2 > 100 µM | CAKI-1 > 100 µM | SF-268 > 100 µM | SF-539 > 100 µM | ACHN > 100 µM | SK-MEL-5 > 100 µM | HOP-92 > 100 µM | RPMI-8226 > 100 µM

Cc1cc2c(cc1Br)C1(C)CCC(C)C1(C)O2 (stereo not drawn)
inactive: LOX IMVI 18.6 µM | K562 17.3 µM | SN12C 24.9 µM | SW-620 40.1 µM | Malme-3M 16.9 µM | HL-60 13.4 µM | SNB-19 36 µM | SK-MEL-2 18.6 µM | CAKI-1 56 µM | SF-268 34 µM | SF-539 > 100 µM | ACHN 31.2 µM | SK-MEL-5 29.1 µM | HOP-92 20.9 µM | RPMI-8226 14 µM

CC(C)(Oc1ccc(/C=C/C(=O)c2ccc(Cl)cc2)cc1)C(=O)Nc1c(Cl)cccc1Cl
inactive: LOX IMVI 16 µM | K562 > 100 µM | SN12C 15 µM | SW-620 12.8 µM | Malme-3M 19.7 µM | SNB-19 33.8 µM | SK-MEL-2 42.3 µM | CAKI-1 23.7 µM | SF-268 28.5 µM | SF-539 14.6 µM | ACHN 20.9 µM | SK-MEL-5 18.2 µM | HOP-92 15.7 µM

CN1C(=O)n2c(nc3ccccc32)C(N=[N+]=[N-])(N=[N+]=[N-])C1=O (stereo not drawn)
inactive: LOX IMVI 77.3 µM | K562 > 100 µM | SW-620 > 100 µM | Malme-3M > 100 µM | HL-60 > 100 µM | SNB-19 > 100 µM | SK-MEL-2 > 100 µM | CAKI-1 35.2 µM | SF-268 > 100 µM | SF-539 > 100 µM | ACHN > 100 µM | SK-MEL-5 > 100 µM | HOP-92 86.5 µM | RPMI-8226 > 100 µM

CC1(C)c2ccccc2N2O[C@@H]3C(=O)N(c4ccccc4)C(=O)[C@@H]3C21c1ccccc1 (stereo partly drawn)
inactive: LOX IMVI > 100 µM | K562 56.4 µM | SN12C > 100 µM | SW-620 > 100 µM | Malme-3M > 100 µM | HL-60 30.8 µM | SNB-19 > 100 µM | SK-MEL-2 > 100 µM | CAKI-1 > 100 µM | SF-268 > 100 µM | SF-539 > 100 µM | SK-MEL-5 > 100 µM | RPMI-8226 57.7 µM

CC(C)C(=O)NS(=O)(=O)c1ccccc1
inactive: LOX IMVI > 100 µM | K562 > 100 µM | SN12C > 100 µM | SW-620 > 100 µM | Malme-3M > 100 µM | HL-60 > 100 µM | SNB-19 > 100 µM | SK-MEL-2 > 100 µM | CAKI-1 > 100 µM | SF-268 > 100 µM | SF-539 > 100 µM | ACHN > 100 µM | HOP-92 > 100 µM | RPMI-8226 > 100 µM

CCCCCCC(=O)C/C(CCC(=O)N(Cc1ccccc1)Cc1ccccc1)=N\Nc1ccc([N+](=O)[O-])cc1[N+](=O)[O-]
inactive: LOX IMVI 33.3 µM | K562 20.3 µM | SN12C 56.1 µM | SW-620 55.6 µM | Malme-3M > 100 µM | HL-60 32.2 µM | SNB-19 > 100 µM | SK-MEL-2 83.4 µM | CAKI-1 > 100 µM | SF-268 39.1 µM | SF-539 54.5 µM | ACHN 27.3 µM | SK-MEL-5 55.5 µM | HOP-92 51.1 µM | RPMI-8226 31.9 µM

N#C/N=C(/NCCc1c[nH]c2ccccc12)Oc1ccccc1
inactive: LOX IMVI 77.4 µM | K562 26.8 µM | SN12C > 100 µM | SW-620 > 100 µM | HL-60 21.6 µM | SNB-19 93.5 µM | SF-268 > 100 µM | SF-539 97.9 µM | ACHN 27.4 µM | SK-MEL-5 35.6 µM | RPMI-8226 37.7 µM

COC(=O)c1cc(O)ccc1NC(=O)c1ccc(O)cc1
inactive: LOX IMVI > 100 µM | K562 > 100 µM | SW-620 > 100 µM | Malme-3M > 100 µM | HL-60 > 100 µM | SNB-19 > 100 µM | SK-MEL-2 > 100 µM | CAKI-1 79.4 µM | SF-268 > 100 µM | SF-539 > 100 µM | ACHN > 100 µM | SK-MEL-5 > 100 µM | HOP-92 87.7 µM | RPMI-8226 > 100 µM

COc1ccc2c3c(coc13)C(CCC(=O)O)CC2 (stereo not drawn)
inactive: LOX IMVI > 100 µM | SN12C > 100 µM | SW-620 > 100 µM | SNB-19 > 100 µM | CAKI-1 38.7 µM | SF-539 > 100 µM | ACHN > 100 µM | SK-MEL-5 > 100 µM

CCOC1c2nc3ccccc3nc2-c2ccccc2N1C(C)=O (stereo not drawn)
inactive: K562 83 µM | SN12C > 100 µM | SW-620 > 100 µM | HL-60 > 100 µM | SNB-19 > 100 µM | SK-MEL-2 81.7 µM | CAKI-1 > 100 µM | SF-539 > 100 µM | ACHN > 100 µM | HOP-92 29.2 µM | RPMI-8226 > 100 µM

CC(C)c1cccc(C(C)C)c1NC(=S)NN=C1C=C(C(C)(C)C)C(=O)C(C(C)(C)C)=C1
inactive: LOX IMVI 18.2 µM | K562 23.3 µM | SN12C 22.2 µM | SW-620 28.5 µM | Malme-3M 27.3 µM | HL-60 26.1 µM | SNB-19 22.3 µM | SK-MEL-2 20.2 µM | SF-268 34.3 µM | SF-539 19.9 µM | ACHN 34.4 µM | SK-MEL-5 21 µM | RPMI-8226 27.2 µM

COc1cc2c(cc1OC)-c1cc3cc(OC)c(OC)cc3n1CC2
inactive: K562 26.3 µM | SN12C > 100 µM | SW-620 33.9 µM | Malme-3M 23.8 µM | HL-60 > 100 µM | SNB-19 25.8 µM | SK-MEL-2 > 100 µM | CAKI-1 55.7 µM | SF-268 81.5 µM | ACHN 31.6 µM | HOP-92 60.3 µM | RPMI-8226 71.8 µM
